Experimental data: publication PMC6271079, “Amino Acid Derivatives of Ligustrazine-Oleanolic Acid as New Cytotoxic Agents” (Molecules, 2014)

Assays:
HepG2 = experiment: MTT cytotoxicity assay, HepG2; format: cell-based; details: HepG2, 72 h, human hepatoma cells
Protocol: (§1) The cytotoxicity of these compounds was tested on five cells lines by the standard MTT assay. The human cancer cells lines (HepG2, HT-29, Hela, BGC-823) and MDCK cells were provided by the Chinese Academy of Medical Sciences Peking Union Medical College. The tumor cells were cultured in RPMI 1640 medium supplemented with 10% (v/v) fetal bovine serum and 1% (v/v) penicillin-streptomycin (Thermo Technologies, New York, NY, USA) at 37 °C in a humidified atmosphere with 5% CO2. The growing tumor cells at a density 3 × 10^3 cells/mL were exposed to various concentrations of the tested drugs and incubated in a 96-well microtiter plate for 72 h (37 °C, 5% CO2). After MTT solution (20 μL, 5 mg/mL) was added to each well, the plate was incubated for a further 4 h. Then the media was removed. Formazan crystals were dissolved with DMSO (150 μL). After mixing well, the absorbance was quantified at 490 nm with a BIORAD 550 spectrophotometer (Bio-rad Life Science Development Ltd., Beijing, China). Wells containing no drugs were used to be blanks. The IC50 values were defined as the concentration of compounds that produced a 50% reduction of surviving cells and calculated using the Logit-method. Tumor cell growth inhibitory rate was calculated in the following Equation (1): % inhibition = (1 − Sample group OD/Control group OD) × 100%(1)

HT-29 = experiment: MTT cytotoxicity assay, HT-29; format: cell-based; details: HT-29, 72 h, human colorectal cancer cells
Protocol: as §1

Hela = experiment: MTT cytotoxicity assay, Hela; format: cell-based, human; details: Homo sapiens, 72 h, cervical cancer cells
Protocol: as §1

BGC-823 = experiment: MTT cytotoxicity assay, BGC-823; format: cell-based; details: BGC-823, 72 h, human gastric cancer cells
Protocol: as §1

MDCK cells = experiment: MTT toxicity (nephrotoxicity) evaluation, MDCK; format: cell-based; details: Canis lupus familiaris, MDCK, 72 h, Madin-Darby canine kidney cells
Protocol: as §1

[1] = logP by shake flask-ultraviolet spectrophotometry; format: physicochemical; details: n-caprylic alcohol-water (octanol/water); pH 6.8, n-caprylic alcohol-water, shake flask-UV; read-out: logP (octanol-water partition coefficient)
Text: Lipophilicity (ClogP) is used in rational drug design as a key factor related to the cell transmembrane transport or other biological processes. ClogP values can either be calculated experimentally or predicted by means of commercially available programs. In this work, ClogP values of the TOA-amino acid derivatives were predicted using Sybyl-X 2.0 (Tripos, Certara Inc., St. Louis, MO, USA). […] To determine the octanol-water partition coefficient (logP), a shake flask-ultraviolet spectrophotometry method was used to determine the concentration of 6a and TOA in the water phase and organic phase at pH 6.8 with n-caprylic alcohol-water as the simulation system. […] However, the better activity connected with the increases of these amino acid conjugates’ solubility is worthy of further study.

mice = details: via gavage in mice; earlier studies, no reference given; cited from earlier work
NF-κB/p65 and COX-2 = tested on: NF-κB/p65 and COX-2; parameters: method as in PMID 24147349; details: S180 mice; cited from earlier work

In the case of `Cc1nc(C)c(COC(=O)[C@]23CCC(C)(C)CC2C2=CCC4[C@@]5(C)CC[C@H](O)C(C)(C)C5CC[C@@]4(C)[C@]2(C)CC3)nc1C` (stereo partly drawn) [TOA, 3β-Hydroxyolea-12-en-28-oic acid-3,5,6-trimethylpyrazine-2-methyl Ester], the IC50 (HepG2) is reported as 21.4 µM, the IC50 (HT-29) is reported as over 25 µM and the IC50 (Hela) is reported as 8.68 µM. The IC50 (BGC-823) was over 25 µM, the IC50 (MDCK cells) was over 25 µM and the logP [1] was 6.11. The LD50 (mice) was “exceeded 6.0 g/kg” and the “Expression of NF-κB/p65 and COX-2” value (NF-κB/p65 and COX-2) was “prevented the expression”.
